For five molecules, DC50, Dmax and IC50 results are on record in patent publication US20260166159A1, “KRAS G12D DEGRADATION AGENT, AND PREPARATION METHOD AND USE THEREFOR” (LEADINGTAC PHARMACEUTICAL (SHAOXING) CO., LTD., priority 2022, published 2026).

Assay [1] deals with T1, KRAS-G12D (Homo sapiens, UniProt P01116, G12D).
T1 construct: endogenous in cells; host or cells: A-427 (ATCC), AGS, AsPc-1, Panc 04.03
Put plainly: KRAS-G12D degradation assay (Western Blot), A-427 cells. It counts as cell-based. The following applies: A427 cells, 24 h; for Dmax: A-427. An outline of the steps:
(§1)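 Western blotting of lysates (5 μg protein) quantified KRAS against a β-actin reference after 24 h exposure to compound at final 0.03–3000 nM in 0.25% DMSO. Cells were A-427, AGS, AsPc-1 or Panc 04.03, all KRAS G12D, at 5×10^5/well. Degradation versus control yielded DC50 and Dmax.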
A general note: Immunoblotting shows a protein as a band on a membrane.

Assay [2] addresses T1, KRAS-G12D. Put plainly: KRAS-G12D degradation assay (Western Blot), AGS cells. The settings on record: 24 h. Type of assay: cell-based. On the procedure:
(§2) The degradation effects of the compounds on KRAS-G12D were investigated on KRAS G12D mutant human lung cancer cell A-427 (ATCC), KRAS G12D mutant human gastric cancer cell AGS, KRAS G12D mutant human metastatic pancreatic cancer cell AsPc-1, and KRAS G12D mutant human pancreatic adenocarcinoma cell Panc 04.03. The specific procedures were as follows: 0.95 mL of cells were seeded into each well of a 24-well cell culture plate to achieve a cell density of 5×10^5 cells/well; and the cell plate was incubated in an incubator at 37° C. with 5% CO2 overnight. Then 50 μL of the compound solution after dilution was added to each of the wells with the corresponding cells, so that the final concentration of the compound was in a range of 0.03-3000 nM. The final concentration of DMSO was 0.25%. After the compounds were added, the cell plate was incubated in the incubator at 37° C. with 5% CO2 for 24 h. The culture medium in the 24-well cell culture plate was removed, and the plate was washed twice with 1×PBS (KeyGEN). 120 μL of RIPA (strong) lysis buffer (Beyotime) supplemented with 1 mM phenylmethylsulfonyl fluoride, a protease inhibitor mixture (Beyotime), and a protease phosphatase inhibitor mixture (Beyotime) was added to lyse adherent A-427 cells at the bottom of the cell culture plate. After the plate was left to stand on ice for 30 min, the protein lysate in each well was transferred to a 1.5 mL centrifuge tube and centrifuged at 15000 g for 20 min at 4° C. The cell lysate supernatants after centrifugation were cryopreserved in a refrigerator at −80° C. for later use.
(§3) After the samples of the cell lysate supernatants that had been prepared were thawed from the refrigerator at −80° C., the total protein concentrations of the cell lysates were determined using a BCA protein quantification kit (Tiangen). The total protein concentrations of the samples were then adjusted to 0.5 μg/μL with PBS and 5×SDS-PAGE protein loading buffer (Beyotime), and the samples were incubated in a water bath at 100° C. for 15 min. The samples were then incubated in an ice bath for 5 min and centrifuged at 14000 g for 1 min at 4° C., and the supernatants were mixed well as loading samples for the Western Blot assay. The samples were loaded into wells of a 10% precast gel (KeyGEN) with a loading volume of 10 μL (total protein: 5 μg), a sufficient Tris-MOPS-SDS running buffer (Adamas) was added, and then electrophoresis was performed at a constant voltage of 120 V for 55 min. After the electrophoresis, the proteins on the gel were transferred to PVDF membranes at a constant current of 250 mA for 55 min. After the membrane transfer, the PVDF membranes were incubated in 1× Quick Block blocking buffer (Beyotime) at room temperature for 30 min. After the blocking, the PVDF membranes were separately incubated at 4° C. overnight with the KRAS antibody (Abcam) diluted in a ratio of 1:1000 and the […] antibody (Abcam) diluted in a ratio of 1:2000 in 5% BSA as the diluent, and then washed with 1×TBST buffer (2.4 g of Tris, 8.8 g of NaCl, 1.5 mL of Tween 20, with pH adjusted to 7.4, with the volume brought to 1 L) 3 times for 10 min/time. The membranes were incubated with a secondary antibody (Abcam) diluted in 5% BSA at room temperature for 2 h, and then washed with 1×TBST buffer 3 times for 10 min/time. Finally, the membranes were incubated with Clarity Western ECL Substrate (BIO-RAD) for 5 min for luminescence and color development, and a ChemiScope 6200 Touch chemiluminescence imaging system (Clinx) was used for color development and protein mapping. Gray value analysis of the protein maps was performed using the chemiluminescence analysis software (Clinx). The gray correction value for each sample was calculated using the formula: gray correction value=(gray value of target protein/gray value of corresponding internal reference)×10^3. Then degradation rates were calculated by comparison with the gray correction value of the control group. […]

The target in assay [3] is T1, KRAS-G12D. Put plainly: KRAS-G12D degradation assay (Western Blot), AsPc-1 cells. It counts as cell-based. The following applies: for DC50: 24 h; for Dmax: ASPC1, 24 h. An outline of the steps: as §1
Assay [4] deals with T1, KRAS-G12D. In words: KRAS-G12D degradation assay (Western Blot), Panc 04.03 cells. Type of assay: cell-based. The following applies: 24 h. On the procedure:
as §2, §3

The subject of assay [5] is KRAS G12D mutant human lung cancer cell A427. In words: 3D cell proliferation inhibition assay, A427. It counts as cell-based. The following applies: A-427, 168 h, A427, 7 days, CTG. Summed up: (§4)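 Compound dilutions are added to low-adsorption wells, then cells at 5×10^2 cells/well. Final compound range is 10000–0.026 nM, with 0.2% DMSO. After 7 days at 37 °C with 5% CO2, CTG reagent is added and luminescence is read 60 min later. IC50 is fitted from inhibition relative to DMSO and medium controls.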

The test system of assay [6] is KRAS G12D mutant human gastric cancer cell AGS. In words: 3D cell proliferation inhibition assay, AGS. Type of assay: cell-based. The following applies: 168 h, 7 days, CTG. Summed up:
as §4

For assay [7], the system named is KRAS G12D mutant human metastatic pancreatic cancer cell AsPc-1. Put plainly: 3D cell proliferation inhibition assay, AsPc-1. The following applies: ASPC1, 168 h, AsPc-1, 7 days, CTG. It counts as cell-based. Summed up: as §4
Assay [8] relates to KRAS G12D mutant human pancreatic cancer cell Panc 04.03. Put plainly: 3D cell proliferation inhibition assay, Panc 04.03. The settings on record: 168 h, Panc 04.03, 7 days, CTG. Type of assay: cell-based. Summed up:
as §4

For assay [9], the system named is KRAS G12D mutant human pancreatic cancer cell HPAC. Put plainly: 3D cell proliferation inhibition assay, HPAC. Type of assay: cell-based. The following applies: 168 h, 7 days, CTG. Summed up:
as §4

Assay [10] addresses T2, Human KRAS G12D 6His-tagged (Homo sapiens, UniProt P01116, G12D).
T2 construct: purchased PerkinElmer
Put plainly: KRAS-G12D/GTP binding assay (HTRF). The settings on record: class symbols. Summed up:
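Compounds at 0.02-5000 nM final (0.5% DMSO) were tested for blocking GTP Red tracer binding to His-tagged KRAS G12D, detected by Eu-cryptate anti-His antibody after 1 h, 25° C. Inhibition taken from 665/620 nm ratio relative to control, then fitted to give IC50.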
For orientation: Time-resolved FRET reads energy transfer from a long-lived donor to a nearby acceptor.

pIC50: −log10 of the molar value. A value given as a limit tells only on which side of the number the result lay.

T1 sequence (P01116 1-188 isoform P01116-2 G12D): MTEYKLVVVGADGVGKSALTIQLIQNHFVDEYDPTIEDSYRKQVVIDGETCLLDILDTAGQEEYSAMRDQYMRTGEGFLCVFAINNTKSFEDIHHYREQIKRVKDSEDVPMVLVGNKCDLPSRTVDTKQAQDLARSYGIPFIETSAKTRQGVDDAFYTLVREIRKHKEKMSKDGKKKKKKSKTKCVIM
T2 sequence (P01116 1-188 isoform P01116-2 G12D): as above

For orientation: DC50 means the midpoint of the concentration-degradation curve. High values mean degradation only at high concentration, low ones degradation at low concentration. As a reminder, the Dmax is the largest share of the target that was removed. Lower therefore signals shallow degradation. Usually pIC50 stands for the IC50 on a negative log10 scale, so that one unit is a factor of ten. Read a high pIC50 as a low IC50. On to `CCc1cccc2cc(O)cc(-c3ncc4c(N5CC6CCC(C5)N6)nc(OCC5(CN6CCN(CC7CCC8(CC7)CCN(C(=O)c7ccc(C)c(N9CCC(=O)NC9=O)c7)CC8)CC6)CC5)nc4c3F)c12` [Example 51, 1-(5-(9-((4-((1-(((4-(3,8-diazabicyclo[3.2.1]octan-3-yl)-7-(8-ethyl-3-hydroxynaphthalen-1-yl)-8-fluoropyrido[4,3-d]pyrimidin-2-yl)oxy)methyl)cyclopropyl)methyl)piperazin-1-yl)methyl)-3-azaspiro[5.5]undecane-3-carbonyl)-2-methylphenyl)dihydropyrimidine-2,4(1H,3H)-dione], for which the DC50 at KRAS-G12D [1] (class symbols) was at most 50 nM; at KRAS-G12D [2] it was 9.87 nM; on KRAS-G12D [3], 4.79 nM; at KRAS-G12D [4], 23 nM. Besides, the Dmax on KRAS-G12D [1] (class symbols) was 80 to 100%; at KRAS-G12D [2] it was 97.2%; on KRAS-G12D [3], 99.4%; on KRAS-G12D [4], 93.8%. Besides, the pIC50 is at least 7.30 in assay [5] (class symbols); at least 7.30 in [6] (class symbols); at least 7.30 in assay [7] (class symbols); at least 7.30 in [8] (class symbols); 8.34 in [9].

In the case of `Cc1ccc(C(=O)N2CCC3(CCC(CN4CCN(CC5(COc6nc(N7CC8CCC(C7)N8)c7cnc(-c8cc(O)cc(Cl)c8C8CC8)c(F)c7n6)CC5)CC4)CC3)CC2)cc1N1CCC(=O)NC1=O` [Example 81, 1-(5-(9-((4-((1-(((4-(3,8-diazabicyclo[3.2.1]octan-3-yl)-7-(3-chloro-2-cyclopropyl-5-hydroxyphenyl)-8-fluoropyrido[4,3-d]pyrimidin-2-yl)oxy)methyl)cyclopropyl)methyl)piperazin-1-yl)methyl)-3-azaspiro[5.5]undecane-3-carbonyl)-2-methylphenyl)dihydropyrimidine-2,4(1H,3H)-dione], the values for the DC50 on KRAS-G12D [1] (numeric values), at KRAS-G12D [2] and at KRAS-G12D [3] were 16.8 nM, 2.99 nM and 17.8 nM, respectively. Moreover, the Dmax at KRAS-G12D [1] (numeric values) came to 76.5%; on KRAS-G12D [2], 80.3%; at KRAS-G12D [3] it was 98.2%. For the same molecule, the pIC50 is 7.17 in assay [5] (numeric values); 8.26 in assay [6] (numeric values); 7.89 in [7] (numeric values); 7.56 in [8] (numeric values); 8.36 in assay [9].

`C#Cc1cccc2cc(O)cc(-c3ncc4c(N5CC6CCC(C5)N6)nc(OCC5(CN6CCN(CC7CCC8(CC7)CCN(C(=O)c7ccc(C)c(N9CCC(=O)NC9=O)c7)CC8)CC6)CC5)nc4c3F)c12` [Example 55, 1-(5-(9-((4-((1-(((4-(3,8-diazabicyclo[3.2.1]octan-3-yl)-7-(8-ethynyl-3-hydroxynaphthalen-1-yl)-8-fluoropyrido[4,3-d]pyrimidin-2-yl)oxy)methyl)cyclopropyl)methyl)piperazin-1-yl)methyl)-3-azaspiro[5.5]undecane-3-carbonyl)-2-methylphenyl)dihydropyrimidine-2,4(1H,3H)-dione]: the pIC50 in assay [10] is at least 7.30; in [5] (class symbols), at least 7.30; in [6] (class symbols), at least 7.30; in assay [9], 8.37. Further, the DC50 is at most 50 nM at KRAS-G12D [1] (class symbols), 1.91 nM on KRAS-G12D [2], 11.1 nM on KRAS-G12D [3] and 4.08 nM at KRAS-G12D [4]. Also, the maximal degradation (Dmax) was 80 to 100% on KRAS-G12D [1] (class symbols), 99.2% at KRAS-G12D [2], 95.2% on KRAS-G12D [3] and 98.6% on KRAS-G12D [4].

For the molecule `C#Cc1c(F)ccc2cc(O)cc(-c3ncc4c(N5CC6CCC(C5)N6)nc(OC[C@H](C)CN5CCN(CC6CCC7(CC6)CCN(C(=O)c6ccc(OC)c(N8CCC(=O)NC8=O)c6)CC7)CC5)nc4c3F)c12` [Example 90], the DC50 was found to be 0.86 nM on KRAS-G12D [1] (numeric values), 10.6 nM on KRAS-G12D [2] and 1.87 nM on KRAS-G12D [3]. The Dmax at KRAS-G12D [1] (numeric values) amounted to 95.6%; at KRAS-G12D [2] it was 98.9%; at KRAS-G12D [3] it was 100%. Besides, the pIC50 is 7.55 in [5] (numeric values); 9.19 in [6] (numeric values); 8.92 in [7] (numeric values); 8.05 in [8] (numeric values); 8.61 in assay [9].

In the case of `[2H]C([2H])([2H])c1ccc(C(=O)N2CCC3(CCC(CN4CCN(C[C@@H](C)COc5nc(N6CC7CCC(C6)N7)c6cnc(-c7cc(O)cc8ccc(F)c(C#C)c78)c(F)c6n5)CC4)CC3)CC2)cc1N1CCC(=O)NC1=O` [Example 109, 1-(5-(9-((4-((R)-3-((4-(3,8-diazabicyclo[3.2.1]octan-3-yl)-7-(8-ethynyl-7-fluoro-3-hydroxynaphthalen-1-yl)-8-fluoropyrido[4,3-d]pyrimidin-2-yl)oxy)-2-methylpropyl)piperazin-1-yl)methyl)-3-azaspiro[5.5]undecane-3-carbonyl)-2-(methyl-d3)phenyl)dihydropyrimidine-2,4(1H,3H)-dione], the DC50 at KRAS-G12D [2] is 4.8 nM; on KRAS-G12D [3] it was 0.64 nM. In addition, the Dmax came to 94.5% at KRAS-G12D [2] and 98.8% on KRAS-G12D [3]. The pIC50 in assay [6] (numeric values) is 8.40; in [7] (numeric values), 8.85; in [8] (numeric values), 8.17; in [9], 8.79.
